Measurements as given in patent US20130189185A1, “Boron-Based Dual Imaging Probes, Compositions and Methods for Rapid Aqueous F-18 Labeling, and Imaging Methods Using Same” (UNIVERSITY OF SOUTHERN CALIFORNIA, priority 2011, published 2013).

Key:
[1] = Ex vivo fluorescence and microPET imaging of dissected organs; format: in vivo, nude mouse; conditions: organs harvested after microPET scan 4 h post injection
Excerpt: The dual modality operation of the probe was confirmed. To this end, the animal was euthanized and selected organs harvested for ex vivo fluorescence and microPET imaging (FIG. 4). The fluorescence images were obtained by irradiation of the organs at λ=500 nm. This wavelength was chosen because it falls within the absorption band of [2-F]^+ (see Supporting Information). The fluorescence image was reconstructed based on the emission intensity measured at λ=580±20 nm, a wavelength which is within the fluorescence band of [2-F]^+ (see Supporting Information).
(§1) Obvious bone uptake even at 3 h post injection was not observed, which is consistent with the reported high stability of BODIPY dyes. Next, the dual modality potential of the probe was confirmed. The animal was euthanized and liver, kidneys and muscle were harvested for ex vivo PET/fluorescence imaging. […] We also sectioned the kidney and observed the BODIPY fluorescent signal under microscope.
To cross-evaluate the dual modality tracer ^18F-2-F, ex vivo fluorescence imaging was performed using a Lumina II small-animal imaging system (Xenogen, Alameda, Calif.). After the microPET imaging was done, the nude mouse was sacrificed. […] Fluorescent images were acquired and analyzed using Living Image 2.5 software (Xenogen). The fluorescence images were acquired using a 2-s exposure time (f-stop 4).

[2] = In vivo microPET imaging of normal nude mice; conditions: judged from imaging results
Method: The stability of the resulting ^18F—B compound is critical as free [^18F]-fluoride ions could bind to the bones giving rise to unwanted and interfering background signals.^14 The stability of compound [^18F]-[2-F]^+ was first studied in PBS buffer at pH 7.5 over a period of several hours. […] In order to validate the approach for in vivo PET imaging, [^18F]-[2-F]^+ (prepared via the aqueous route) was injected into normal nude mice that were imaged using a microPET scanner 1 h, 2 h, and 4 h post injection. […] Thus, although probe compound [^18F]-[2-F]^+ lacks any specific targeting functionalities, its accumulation in these organs constitutes a normal phenomenon, in line with its hydrophobic and cationic nature.
as §1
The nude mice were imaged using a microPET R4 rodent model scanner (Concorde Microsystems, Knoxyille, Tenn.) in the prone position. The mice were injected with 50-80 μCi of [^18F]-[2-F]^+ via the tail vein. […]

uptake in heart, representative bones and muscles, ex vivo [1]: minimal uptake
stability in vivo [2]: stable in vivo
SMILES: CC1=CC(C)=[N+]2C1=C(c1ccc([N+](C)(C)C)cc1)c1c(C)cc(C)n1[B-]2(F)c1ccccc1 (stereo not drawn) [[2-F]^+]
accumulation of the probe in organs, ex vivo microPET and fluorescence ([1]; excitation 500 nm, emission 580±20 nm): accumulation of the probe in the liver and kidneys
